How the values were obtained:
[1] = tested on: A49492 (Streptomyces capillispira); assay: Antibiotic disk sensitivity test of A49492; further: key: +: a plus indicates that a zone of inhibition was formed; -: a minus sign indicates that there was no inhibition zone; type: cell-based; conditions: ISP No. 2 agar seeded with 2% vegetative inoculum; amount per disk: Erythromycin 15 μg, Keflin 30 μg, Lincomycin 2 μg, Nystatin 100 U, Polymixin B 300 U, Streptomycin 10 μg, Tetracycline 30 μg, Vancomycin 5 μg
Method: Sodium chloride and sucrose tolerance were measured using ISP No. 2 agar. Antibiotic sensitivity was determined with sensitivity discs placed onto the surface of ISP No. 2 agar plates seeded with 2% vegetative inoculum.
In the table below, the column headed "Amount" indicates the amount of the antibiotic deposited on each disk.

[2] = tested on: enzyme produced by Streptomyces capillispira; assay: Rate of enzymatic deesterification of cephalosporin methyl esters (titrimetric / spot-plate); type: biochemical
Method: Another detection method, called the spot plate method, was carried out by pipetting a carefully measured amount, usually 10 μl., of the mixture to be analyzed onto a filter paper sheet which had small zones outlined by lacquer so that liquids placed on the zones were isolated from each other. If the substrate compound was a nucleus ester, so that acylation was necessary, each zone was also spotted with 10 μl. of 2% sodium bicarbonate solution, and 20 μl. of 2.5% phenoxyacetyl chloride in petroleum ether. The spots were air-dried, and the paper sheets were overlaid on the agar surface of an assay plate which had been seeded with a spore suspension of B. subtilis. The sheets were left on the agar plates for about 45 minutes, and were then removed and the agar plates were incubated at 25° overnight. The sizes of the zones of inhibition were then measured, and the amount of cephalosporin acid in the sample was determined by comparison with the sizes of the zones produced by known amounts of the cephalosporin acid which was the product of the deesterification.
The above biological analytical methods are useful both for unpurified fermentation mixtures, and for purified enzyme preparations. Purified preparations are readily analyzed by titrimetric methods which determine the amount of acid produced by measuring the amounts of base needed to maintain constant pH during the reaction. Thus, the deesterification reaction is easily monitored with an automatic titrator by adding the enzyme preparation to an appropriate substrate solution and following the course of deesterification by the amount of base added to the sample by the automatic titrator.
The activity of the enzyme preparations in the following examples is described as a rate, usually measured in terms of (moles of substrate deesterified)/(mg. of protein or cells)(minute). In some instances, the activity of the enzyme was described in other ways, and such instances are explained in the pertinent examples.
The substrate against which enzyme activity was measured was methyl 7-amino-3-methyl-3-cephem-4-carboxylate unless otherwise stated.
In this experiment, the enzyme preparation of Example 16 was used to deesterify methyl cephalexin, and the rate of hydrolysis was measured by pH-stat titration. Reaction mixtures were prepared as shown in Example 16, except that 1 ml. of the enzyme preparation and 2 ml. of substrate solution were used, so that the final reaction mixture contained 2.5 mg./ml. of protein.
A purified enzyme preparation, prepared substantially as described in Example 15 above, and containing 0.66 mg./ml. of protein was used to deesterify methyl 7-amino(phenyl)acetamido-3-chloro-3-cephem-4-carboxylate(methyl cefaclor). […]

[3] = tested on: enzyme produced by Streptomyces capillispira; assay: Deesterification shown by paper chromatography and bioautography; type: biochemical; conditions: 3-day culture, 30°, 16-20 hours; chromatogram acylated with phenoxyacetyl chloride; plate seeded with B. subtilis
Method: The usual method made use of filter paper chromatography, with 4/1 acetonitrile/water as the solvent.
If the substrate ester was a cephalosporin nucleus ester, having only an amino group at the 7-position, then the amount of acid could not be measured directly, because the nucleus acid is not active against the test organism.
The inoculated tube was shaken at 30° for 3 days, and then 4 ml. of the culture was transferred to a 50-ml. flask. To the flask was added 1 ml. of a filter-sterilized substrate solution containing 5 mg./ml. of methyl 7-amino-3-methyl-3-cephem-4-carboxylate at pH 7.0.
The flask was then incubated with shaking at 30° for 16-20 hours to allow the enzyme to deesterify the substrate compound.
The supernatant from the centrifugation was evaluated by paper chromatography as described above, using 4/1 acetonitrile/water as the solvent.
A substrate solution containing about 2 mg./ml. of methyl 7-amino(phenyl)acetamido-3-methyl-3-cephem-4-carboxylate (methyl cephalexin) was prepared in water, at pH 7.2. […] The mixture was shaken at 30° for 4 hours, and was then analyzed by paper chromatography, overlaying the chromatograms on nutrient agar plates seeded with Sarcina lutea.

Compound	Result (zone of inhibition, disk sensitivity) [1]	further results
CC[C@H]1OC(=O)[C@H](C)[C@@H](O[C@H]2C[C@@](C)(OC)[C@@H](O)[C@H](C)O2)[C@H](C)[C@@H](O[C@@H]2O[C@H](C)C[C@H](N(C)C)[C@H]2O)[C@](C)(O)C[C@@H](C)C(=O)[C@H](C)[C@@H](O)[C@]1(C)O [Erythromycin]	-	
CC(=O)OCC1=C(C(=O)O)N2C(=O)[C@@H](NC(=O)Cc3cccs3)[C@H]2SC1 [Keflin]	-	
CCC[C@@H]1C[C@@H](C(=O)N[C@@H]([C@H]2O[C@H](SC)[C@H](O)[C@@H](O)[C@H]2O)[C@@H](C)O)N(C)C1 [Lincomycin]	-	
C[C@@H]1[C@H](O)[C@@H](C)/C=C/C=C/CC/C=C/C=C/C=C/C=C/C(O[C@H]2O[C@H](C)[C@@H](O)[C@H](N)[C@@H]2O)CC2O[C@](O)(CC(O)C(O)CCC(O)CC(O)CC(O)CC(=O)O[C@H]1C)CC(O)C2C(=O)O (stereo partly shown) [Nystatin]	-	
[H]/N=C(/N)N[C@H]1[C@H](O)[C@@H](O)[C@H](O[C@@H]2O[C@@H](C)[C@](O)(C=O)[C@H]2O[C@@H]2O[C@@H](CO)[C@H](O)[C@@H](O)[C@@H]2NC)[C@@H](N/C(N)=N\[H])[C@@H]1O [Streptomycin]	+	
CN(C)C1C(=O)C(C(N)=O)=C(O)C2(O)C(=O)C3=C(O)c4c(O)cccc4C(C)(O)C3CC12 (stereo not shown) [Tetracycline]	+	
CN[C@H](CC(C)C)C(=O)N[C@H]1C(=O)N[C@@H](CC(N)=O)C(=O)N[C@H]2C(=O)N[C@H]3C(=O)N[C@H](C(=O)N[C@H](C(=O)O)c4cc(O)cc(O)c4-c4cc3ccc4O)[C@H](O)c3ccc(c(Cl)c3)Oc3cc2cc(c3O[C@@H]2O[C@H](CO)[C@@H](O)[C@H](O)[C@H]2O[C@H]2C[C@](C)(N)[C@H](O)[C@H](C)O2)Oc2ccc(cc2Cl)[C@H]1O [Vancomycin]	+	
COC(=O)C1=C(C)CS[C@@H]2C(N)C(=O)N12 (stereo partly shown) [methyl 7-amino-3-methyl-3-cephem-4-carboxylate]		Km value for the enzyme [2]: about 2.3 mg./ml.; lowest reaction rate ([2]; 15°, pH 8.0, Sephacryl-purified enzyme, automatic titrator, corrected for non-enzymatic hydrolysis): 1e-05 mol/min (liter); highest reaction rate ([2]; 30°, pH 8.0, Sephacryl-purified enzyme, automatic titrator, corrected for non-enzymatic hydrolysis): 1.9×10^-5 moles of ester hydrolyzed/(minute) (liter of reaction mixture); activity of cell sonicate supernatant ([2]; supernatant containing 14.4 mg./ml. of protein, Example 15): 2.2×10^-5 moles of ester hydrolyzed/(minute) (liter); deesterification in culture, zone of inhibition after acylation [3]: zone of inhibition
Polymixin B	-	
